ChEMBL document CHEMBL1201862, “PubChem BioAssay data set” (2004)
Calls of active or inactive are those of the source.

Columns and labels:
[1] = tested on: INS1; assay: beta cell apoptosis inhibitors, cytokine rescue, dose response, luminescence, retest (AID 449756); type: functional, cell-based; details: Rattus norvegicus;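 further: cell death triggered by IL-1 beta plus TNF-alpha plus IFN-gamma mixture; protective hits raise ATP signal compared with cytokine alone wells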
[2] = molecular target: T1, Protein RecA (Mycobacterium tuberculosis, UniProt P9WHJ3); assay: Fluorescence Cell-Free Homogeneous Dose Retest to Identify Inhibitors of RecA-Intein Splicing Activity. [Related pubchem assays (depositor defined):AID2097, AID2223, AID489010, AID492950]; type: functional
T1 sequence (P9WHJ3 whole entry): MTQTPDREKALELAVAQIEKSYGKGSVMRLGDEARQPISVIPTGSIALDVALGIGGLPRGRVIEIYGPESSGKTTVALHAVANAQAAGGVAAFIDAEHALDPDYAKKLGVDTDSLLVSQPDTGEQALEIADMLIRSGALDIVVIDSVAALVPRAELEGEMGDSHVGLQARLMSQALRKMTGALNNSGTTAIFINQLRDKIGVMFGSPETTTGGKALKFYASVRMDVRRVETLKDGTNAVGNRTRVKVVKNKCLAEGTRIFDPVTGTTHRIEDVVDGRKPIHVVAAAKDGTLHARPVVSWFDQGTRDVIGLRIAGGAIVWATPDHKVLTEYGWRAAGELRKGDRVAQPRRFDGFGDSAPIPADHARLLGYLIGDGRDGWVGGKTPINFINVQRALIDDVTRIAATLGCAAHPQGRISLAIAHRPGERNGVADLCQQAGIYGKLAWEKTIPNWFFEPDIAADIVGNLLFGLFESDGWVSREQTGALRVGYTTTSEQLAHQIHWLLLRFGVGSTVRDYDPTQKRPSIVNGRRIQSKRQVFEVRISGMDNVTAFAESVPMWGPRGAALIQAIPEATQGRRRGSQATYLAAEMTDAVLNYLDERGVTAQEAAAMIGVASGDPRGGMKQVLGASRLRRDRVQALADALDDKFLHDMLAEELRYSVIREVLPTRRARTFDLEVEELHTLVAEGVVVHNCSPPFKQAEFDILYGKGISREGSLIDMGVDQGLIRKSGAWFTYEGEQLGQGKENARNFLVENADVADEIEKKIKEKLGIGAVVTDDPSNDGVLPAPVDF

[3] = molecular target: T2, Sentrin-specific protease 6 (Homo sapiens, UniProt Q9GZR1); type: functional;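 further: Luminescence-based dose-response confirmatory assay of SENP6 inhibition, following up an ultra-high-throughput screen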
T2 sequence (Q9GZR1 whole entry): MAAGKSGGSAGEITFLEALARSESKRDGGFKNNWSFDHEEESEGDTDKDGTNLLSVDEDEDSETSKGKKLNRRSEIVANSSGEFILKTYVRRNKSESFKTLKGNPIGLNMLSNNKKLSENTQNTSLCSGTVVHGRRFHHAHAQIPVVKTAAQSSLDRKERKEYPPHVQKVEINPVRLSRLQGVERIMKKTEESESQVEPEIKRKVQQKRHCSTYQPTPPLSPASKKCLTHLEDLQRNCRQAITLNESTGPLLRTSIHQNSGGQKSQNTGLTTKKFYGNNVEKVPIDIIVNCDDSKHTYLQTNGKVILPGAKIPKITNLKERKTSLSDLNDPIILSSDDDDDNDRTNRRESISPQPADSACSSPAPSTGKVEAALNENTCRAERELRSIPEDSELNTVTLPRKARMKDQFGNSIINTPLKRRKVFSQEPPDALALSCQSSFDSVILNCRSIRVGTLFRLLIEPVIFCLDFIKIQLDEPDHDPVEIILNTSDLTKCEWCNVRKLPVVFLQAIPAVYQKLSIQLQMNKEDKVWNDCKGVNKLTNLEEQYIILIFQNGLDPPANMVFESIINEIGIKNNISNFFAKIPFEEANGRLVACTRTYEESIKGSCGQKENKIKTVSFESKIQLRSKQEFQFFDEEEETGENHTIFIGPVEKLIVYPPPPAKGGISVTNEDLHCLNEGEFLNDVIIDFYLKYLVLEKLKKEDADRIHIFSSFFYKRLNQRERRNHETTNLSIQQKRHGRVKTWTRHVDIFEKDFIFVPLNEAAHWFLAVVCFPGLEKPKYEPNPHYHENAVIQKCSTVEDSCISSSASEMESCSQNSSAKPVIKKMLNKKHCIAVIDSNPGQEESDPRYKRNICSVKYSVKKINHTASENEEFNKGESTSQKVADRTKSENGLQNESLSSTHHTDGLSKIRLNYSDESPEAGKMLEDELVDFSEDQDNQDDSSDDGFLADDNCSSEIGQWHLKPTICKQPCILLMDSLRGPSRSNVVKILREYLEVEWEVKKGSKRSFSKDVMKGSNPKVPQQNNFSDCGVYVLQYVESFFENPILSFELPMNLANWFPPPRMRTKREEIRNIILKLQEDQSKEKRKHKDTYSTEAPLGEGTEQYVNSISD

[4] = molecular target: T3, Sentrin-specific protease 8 (Homo sapiens, UniProt Q96LD8); type: functional;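 further: luminescence read-out of SENP8 inhibition, dose-response confirmation following an ultra-high-throughput screen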
T3 sequence (Q96LD8 whole entry): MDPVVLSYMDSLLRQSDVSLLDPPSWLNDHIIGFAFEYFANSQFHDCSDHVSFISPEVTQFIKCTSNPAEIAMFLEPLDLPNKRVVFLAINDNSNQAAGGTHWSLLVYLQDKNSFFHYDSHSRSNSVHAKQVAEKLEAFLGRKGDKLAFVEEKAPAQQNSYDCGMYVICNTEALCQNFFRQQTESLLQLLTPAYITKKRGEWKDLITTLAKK

Row | SMILES | AC50 [1] | EC50 [2] | IC50 [3] | IC50 [4]
1 | COC(=O)C[C@]1(C(=O)OC)CN(C#N)N(c2ccc(Cl)cc2)C12c1ccccc1-c1ccccc12 | 2.77 µM (active) | 1.77 µM (active) |  | 
2 | O=C(Nc1ccc(C#Cc2ccccc2)cc1)C1CC1 |  |  | > 100 µM (inactive) | > 100 µM (inactive)
3 | CCCCn1c(NC(=O)c2ccco2)c(C(=O)OCC)c2nc3ccccc3nc21 |  |  | 3.25 µM (active) | 4.36 µM (active)
4 | Cc1ccccc1NC1=C/C(=N\S(=O)(=O)c2ccc(C(=O)O)cc2)c2ccccc2C1=O | 4.38 µM (active) | 3.67 µM (active) |  | 
5 | Cc1ccc(NC2=C/C(=N/S(=O)(=O)c3cccs3)c3ccccc3C2=O)cc1 | 0.72 µM (active) | 0.119 µM (active) | 0.186 µM (active) | 0.244 µM (active)
6 | COc1ccc(-c2cc(-c3ccc(C)cc3)[nH]n2)c(O)c1 |  |  | 19.7 µM (active) | 34.6 µM (active)
